# Experimental data taken from patent US20170182047A9, “Post-Translational Regulation of Catalytic Activities of Cytochrome P450 46A1 and Uses Thereof” (The Board of Regents of the University of Texas System, priority 2007, published 2017).
# Where two headings read alike, the source gives them in different places.
# Assays:
# [1] = biological target: full-length CYP46A1 (Homo sapiens, UniProt Q9Y6A2); experiment: Inhibition/stimulation of cholesterol hydroxylase activity at fixed 43 μM test compound; assay type: biochemical; conditions: 2.7 μM cholesterol, 43 μM compound; FIG. 4A-4C
# Sequence of full-length CYP46A1 (Q9Y6A2 whole entry): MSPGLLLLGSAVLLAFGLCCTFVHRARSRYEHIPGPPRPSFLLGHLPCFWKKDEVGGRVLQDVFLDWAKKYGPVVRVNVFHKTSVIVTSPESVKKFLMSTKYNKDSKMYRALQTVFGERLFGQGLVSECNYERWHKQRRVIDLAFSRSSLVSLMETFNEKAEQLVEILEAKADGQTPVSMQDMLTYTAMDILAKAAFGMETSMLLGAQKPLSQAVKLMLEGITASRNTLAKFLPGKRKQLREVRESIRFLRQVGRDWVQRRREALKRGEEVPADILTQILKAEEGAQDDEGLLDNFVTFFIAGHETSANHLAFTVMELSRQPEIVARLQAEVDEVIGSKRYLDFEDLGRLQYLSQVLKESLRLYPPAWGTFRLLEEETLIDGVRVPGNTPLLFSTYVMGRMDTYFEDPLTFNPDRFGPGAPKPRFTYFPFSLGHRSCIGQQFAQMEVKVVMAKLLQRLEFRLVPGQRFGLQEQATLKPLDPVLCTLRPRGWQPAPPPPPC
# [2] = biological target: T1, CYP46A1 (Homo sapiens, UniProt Q9Y6A2); experiment: Spectral binding assay of antifungal azoles; set-up: Recombinant full-length human CYPs 46A1 and 27A1 and bovine CYP11A1 were expressed and purified; made in house; conditions: 0.3 μM purified P450; read-out: estimated Kd
# T1 sequence (Q9Y6A2 whole entry): as above
# Experimental: (§1) Titrations of CYP46A1 were carried out in 50 mM potassium phosphate buffer (KPi), pH 7.2, containing 100 mM NaCl and 0.02% Cymal 6. CYPs 11A1 and 27A1 were in 50 mM KPi without any additives. Antifungal drugs were added from 0.2-5 mM stocks in 50% methanol. The apparent Kd and maximal absorbance change were estimated by non-linear least squares fitting using the quadratic form of the single-site binding equation (9).
# [3] = tested on: Cholesterol 24S-Hydroxylase (CYP46A1); experiment: Brain sterol levels in mice after intraperitoneal voriconazole; assay type: in vivo, C57/B6 J mice
# Experimental: (§2) The mice were sacrificed by cervical dislocation.
# Lipids were extracted from the brain according to Folch with some modifications. Approximately 10 mg of brain tissue was added to 1 ml of homogenization buffer (5 mM EDTA, 50 μg/ml butylated hydroxytoluene in phosphate-buffered saline, pH 7,4) in a clean glass tube, and the tissue was disrupted using a polytron homogeniser. Three milliliters of chloroform:methanol (2:1, v:v) were added to the homogenate and the vials were mixed by vortexing. Samples were centrifuged at 10,000 g for 10 min. The organic phase was transferred to a new vial. The aqueous phase was re-extracted as described previously three more times. The pooled organic phase was dried under stream of argon gas, and chloroform:methanol (2:1, v:v) added to the dried samples to achieve suitable concentration.
# [4] = biological target: T2, CYP27A1 (Homo sapiens, UniProt Q02318); experiment: Spectral binding assay of antifungal azoles; conditions: up to 100 μM
# T2 construct: Recombinant full-length human CYPs 46A1 and 27A1 and bovine CYP11A1 were expressed and purified; made in house
# T2 sequence (Q02318 34-531): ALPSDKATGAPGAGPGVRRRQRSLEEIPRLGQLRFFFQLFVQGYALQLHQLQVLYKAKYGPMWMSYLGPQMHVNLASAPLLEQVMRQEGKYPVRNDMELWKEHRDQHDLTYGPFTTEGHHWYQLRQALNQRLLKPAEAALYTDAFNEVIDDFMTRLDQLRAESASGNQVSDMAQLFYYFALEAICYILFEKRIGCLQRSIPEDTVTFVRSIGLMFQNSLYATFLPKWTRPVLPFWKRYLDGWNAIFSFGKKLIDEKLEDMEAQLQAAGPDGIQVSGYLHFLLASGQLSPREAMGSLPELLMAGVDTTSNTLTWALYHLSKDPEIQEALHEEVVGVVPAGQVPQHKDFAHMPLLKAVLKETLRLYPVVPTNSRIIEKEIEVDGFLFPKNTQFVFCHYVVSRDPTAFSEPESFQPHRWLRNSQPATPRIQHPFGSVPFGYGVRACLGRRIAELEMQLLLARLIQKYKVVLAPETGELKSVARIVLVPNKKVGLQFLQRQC
# Experimental: as §1
# [5] = tested on: Cholesterol 24S-Hydroxylase (CYP46A1); experiment: Plasma oxysterol levels in voriconazole-treated mice
# Experimental: Seven week old male C57/B6 J mice from Charles River were injected intraperitoneally with voriconazole (60 mg/kg or 75 mg/kg, corresponding to 0.6 and 0.75 ml, respectively, of the drug solution). The control mice were injected with the same solutions containing no voriconazole. The mice were sacrificed by cervical dislocation. Brain and liver were collected, snap frozen in liquid nitrogen and stored at −80° C.
# [6] = biological target: T1, CYP46A1; experiment: In vitro IC50 and Ki for CYP46A1-catalysed hydroxylation; assay type: biochemical; set-up: Recombinant full-length human CYPs 46A1 and 27A1 and bovine CYP11A1 were expressed and purified; made in house; conditions: for IC50: 5.4 μM cholesterol
# Experimental: Cholesterol hydroxylation by CYP46A1 was assayed for 20 min at 37° C. in 1 ml of 50 mM KPi, pH 7.2, containing 100 mM NaCl, 0.02% Cymal 6, 40 μg dilauroylglycerol-3-phosphatidylcholine and 2U of catalase. […] The enzymatic reaction was initiated by NADPH (final 1 mM) and terminated by vortexing with 2 ml of CH2Cl2. The organic phase was isolated, evaporated, dissolved in methanol, and subjected to HPLC. […] In addition, the Ki for cholesterol 24-hydroxylation was estimated assuming a model of competitive inhibition.
# [7] = Brain levels of voriconazole; assay type: in vivo, C57/B6 J mice; conditions: after 5 daily intraperitoneal injections (60 mg/kg body weight)
# Experimental: as §2
# Voriconazole was determined in serum and brain homogenates after the extraction with chloroform/methanol (2:1, v:v) and ethanol (10%, v/v, final), respectively. Voriconazole extract (100 μL) was then mixed with 200 μL acetonitrile, centrifuged at 10,000 g for 10 min, and 1 μL of the supernatant injected onto a Phenomenex Luna C18 3 μm column (100×2 mm) connected to the Agilent 1100 liquid chromatography-mass spectrometry system with an autosampler and solvent degasser. Gradient elution was with initial 35% B increasing to 100% B in 5 min (A=1% acetonitrile with 25 mM formic acid; B=100% acetonitrile with 25 mM formic acid). A structure analogue (UK115794, Pfizer Ltd) was used as internal standard. Ions were monitored in a positive mode at m/z 350 (voriconazole) and m/z 348 (internal standard).
# [8] = tested on: genes involved in cholesterol homeostasis; experiment: mRNA expression in mouse brain after voriconazole; assay type: in vivo, C57/B6 J mice; conditions: 5 daily i.p. injections 60 mg/kg
# Experimental: as §2
# Total RNA was obtained from brain and liver tissue using Trizol (Invitrogen, Carlsbad, Calif.). cDNA was synthesised from 2 μg of total RNA using Capacity cDNA ReverseTranscription Kit (Applied Biosystems, Foster City, Calif.). Steady-state mRNA levels were estimated using Taqman probes (primer sequences available on request). All assays were run on an ABI Prism 7000 Sequense Detection System (Applied Biosystems; Foster City, Calif.). Estimation of a relative gene expression was performed using the comparative threshold cycle method, using hypoxathine-guanine phosphoribosyl transferase as endogenous control.
# [9] = 60 mg/kg i.p. once a day for 5 days
smiles,measurement,setting,value
C[C@@H](c1ncncc1F)[C@](O)(Cn1cncn1)c1ccc(F)cc1F [voriconazole],inhibition of cholesterol hydroxylation (in words),[1],significant inhibition
same,Kd,[2],0.05 µM
same,effect on the levels of 27-hydroxycholesterol in the brain,[3]; [9],no effect
same,effect on the levels of cholesterol in the brain,[3]; [9],no effect
same,level of lathosterol in the brain,"[3]; 60 mg/kg i.p. once a day for 5 days, p<0.05",significantly reduced
same,reduction in the levels of 24S-hydroxycholesterol in the brain,"[3]; 60 mg/kg i.p. once a day for 5 days, p=0.03",37%
same,levels of 24S-hydroxycholesterol in the brain,"[3]; different doses (60 or 75 mg/kg i.p.), six hours after the injection",appeared to reduce the levels of 24S-hydroxycholesterol
same,effect on levels of lathosterol in the brain,"[3]; single 60 mg/kg i.p., 2 hours",no significant effect
same,effect on levels of total cholesterol in the brain,"[3]; single 60 mg/kg i.p., 2 hours",no significant effect
same,reduction of levels of 24S-hydroxycholesterol in the brain,"[3]; single 60 mg/kg i.p., 2 hours, not statistically significant (p>0.05)",20%
same,brain levels of dehydrolanosterol,[3]; voriconazole-treated mice (controls 0.14+0.05),1.9+0.7 ng/mg tissue
same,brain levels of squalene,"[3]; voriconazole-treated mice (controls 2.2+0.8), p=0.05",1.7+0.6 ng/mg tissue
same,brain levels of lanosterol,"[3]; voriconazole-treated mice (controls 6.1+2.0), p<0.001",27+10 ng/mg tissue
same,spectral response,[4],only a very weak spectral shift was observed
same,plasma concentration of 24S-hydroxycholesterol,"[5]; pool of plasma, voriconazole-treated mice (control 18.8)",13.2 ng/mL
same,effect on plasma level of 27-hydroxycholesterol,[5]; voriconazole-treated mice,not significantly affected
same,plasma level of 27-hydroxycholesterol,[5]; voriconazole-treated mice (controls 52),46 ng/mL
same,suppression of plasma levels of 24S-hydroxycholesterol,[5]; vs control pool,about 30%
same,IC50,[6]; read-out: IC50 for cholesterol 24-hydroxylation,0.022 µM
same,Ki,"[6]; estimated, competitive inhibition, cholesterol equal to the Km, read-out: Ki for cholesterol 24-hydroxylation",0.011 µM
same,IC50,[6]; read-out: IC50 for 25- and 27-hydroxylations of 24S-hydroxycholesterol,0.047 µM
same,level of voriconazole in the brain,[7],43+8 μg/g wet weight
same,concentration at 5 days,"[7]; male, C57/B6 J, mouse, brain, read-out: level of voriconazole in the brain",123 µM
same,effect on HMG CoA reductase mRNA levels,[8],significant suppressive effect
same,effect on expression of CYP46A1 mRNA,[8],no significant effect
same,effect on expression of HMG CoA synthase mRNA,[8],no significant effect
